From patent US20250381307A1, “RETRO-AAV AND USE IN TREATING NEURODEGENERATIVE DISEASES” (priority 2023, published 2025)

What was measured:
hM3Dq [1] = target: T1, hM3Dq (Homo sapiens, UniProt P20309, A239G/Y149C); test: Slice whole-cell recordings of hM3Dq-transduced MSNs; type: cell-based, mice; parameters: 2A-EYFP (C); host or cells: AAV8R12-transduced EYFP+ striatal MSNs in acute mouse brain slices; settings: AAV8R12-G88P3-HA-hM3Dq-2A-EYFP; CNO 10 μM; basal firing rate and resting membrane potential unaffected
Source text: Mice from different groups were anesthetized with […] isoflurane, and then decapitated. The brain was quickly extracted and placed in ice-cold N-methyl-D-glucamine (NMDG) cutting solution containing (in mM): 92 NMDG, 2.5 KCl, 25 NaHCO3, 1.25 NaH2PO4, 4.5 D-Glucose, 20 HEPES, 5 L-ascorbic acid, 3 Na-pyruvate, 2 Thiourea, 10 MgSO4, 0.5 CaCl2). The pH was adjusted to 7.2±0.1 using HCl and the osmolarity was adjusted to 305±5 mosmol/L using NMDG. The solution was bubbled with 95% O2/5% CO2 prior to use. Coronal striatum slices were cut in 250-[…]m thickness with a vibratome slicer (Leica, VT1200 S), and then incubated in artificial cerebrospinal fluid (aCSF) saturated with 95% O2/5% CO2 for at least 45 min at 37° C. before recording. The aCSF contains (in mM) 125 NaCl, 1.25 KCl, 25 NaHCO3, 1.25 KH2PO4, 25 D-Glucose, 2 CaCl2) and 1 MgCl2, supplemented with 2 mM Na-pyruvate, 3 mM Myo-inositol and 0.4 mM L-ascorbic acid.
The acute striatum slice was transferred to the recording chamber with a constant perfusion of oxygenized aCSF at the rate of 3 ml/min. Neurons were visualized using an upright microscope (Olympus, BX-51) with a 40×water immersion objective at room temperature (˜25° C.). […] Neurons were quickly visualized under fluorescence microscope and then patch clamp were achieved under infrared light illumination and CCD camera. […]

hM3Dq [2] = target: T1, hM3Dq; test: In vivo electrophysiological recording in caudate, hM3Dq macaques, CNO infusion into dorsomedial caudate; parameters: host or cells: AAV8R12-transduced neurons (striatal D1-MSNs, some SNr neurons) of mice and macaques
Description: (§1) Electrophysiological recording was performed through a recording chamber while the monkey was anesthetized. Neural responses were recorded by a 16-channel linear probe (Plexon Inc, Uprobe) driven by a mechanical microdrive (Alpha Omega, FlexMT). Signals were passed through a head stage (Plexon Inc, HST/16V-G20 LN) and then split and filtered between 300 Hz and 5 kHz to identify spiking activity with an amplifier system (Plexon Inc, OmniPlex). Detected spikes were then sorted by commercially available software (Plexon Inc, Offline Sorter) for further analysis. To quantify the effect of CNO/DCZ injection, neural activity was recorded for 60 minutes following CNO/DCZ injection. The response time-course for each channel was obtained by counting the spikes within every 10-minute window and then normalizing to the maximal.
(§2) To determine the effect of CNO/DCZ injection on the direction of signal change, we performed Pearson correlation between neural responses and time using the ‘corr’ function in Matlab, which generates the correlation coefficient ‘r’ and significant level ‘p’. A neuron was considered to have “Increased” activity when r>0 and p<0.05; and considered to have “Decreased” activity when r<0 and p<0.05. Otherwise, neurons were considered to be “Unchanged” in their neural activities. The responses of all increased neurons were then averaged after being normalized by the maximal response (Crowe et al., 2014; Dai and Wang, 2018; Hirokawa et al., 2019) following CNO/DCZ injection, and then plotted as a function of time to generate the normalized population response.

rM3Ds = target: T2, rM3Ds (Rattus norvegicus, UniProt P08483, A177S/A238G/A489L/DEL261-437/DEL441-478/E258S/I253V/I483M/INS256[…]/K178L/K182A/K255R/K484R/K486H/L173F/L482A/M480V/R171S/R176Q/R179M/S481M/T174R/T181R/T257A/Y148C); test: In vivo electrophysiological recording in caudate/putamen of MPP+ lesioned macaques; parameters: rM3Ds; 2A-EYFP (C); host or cells: AAV8R12-transduced striatal D1-MSNs of mice and cynomolgus macaques (in vivo and acute slices)
T2 sequence (P08483 with tags, fused parts or gaps Y148C/R171S/L173F/T174R/R176Q/A177S/K178L/R179M/T181R/K182A/A238G/I253V/K255R/INS256[…]/T257A/E258S/DEL261-437/DEL441-478/M480V/S481M/L482A/I483M/K484R/K486H/A489L): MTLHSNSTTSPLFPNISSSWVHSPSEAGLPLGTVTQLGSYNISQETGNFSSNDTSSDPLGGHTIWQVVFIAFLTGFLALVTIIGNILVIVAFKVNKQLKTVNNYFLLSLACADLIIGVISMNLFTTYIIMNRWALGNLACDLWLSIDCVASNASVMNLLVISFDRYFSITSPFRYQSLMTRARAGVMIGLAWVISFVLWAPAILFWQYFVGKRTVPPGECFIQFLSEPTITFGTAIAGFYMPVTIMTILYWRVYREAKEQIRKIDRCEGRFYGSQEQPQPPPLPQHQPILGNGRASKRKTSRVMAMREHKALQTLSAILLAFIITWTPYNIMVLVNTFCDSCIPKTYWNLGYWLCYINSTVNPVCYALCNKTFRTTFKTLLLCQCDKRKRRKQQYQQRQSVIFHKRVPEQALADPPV
Description: as §1, §2

T1 sequence (P20309 whole entry Y149C/A239G): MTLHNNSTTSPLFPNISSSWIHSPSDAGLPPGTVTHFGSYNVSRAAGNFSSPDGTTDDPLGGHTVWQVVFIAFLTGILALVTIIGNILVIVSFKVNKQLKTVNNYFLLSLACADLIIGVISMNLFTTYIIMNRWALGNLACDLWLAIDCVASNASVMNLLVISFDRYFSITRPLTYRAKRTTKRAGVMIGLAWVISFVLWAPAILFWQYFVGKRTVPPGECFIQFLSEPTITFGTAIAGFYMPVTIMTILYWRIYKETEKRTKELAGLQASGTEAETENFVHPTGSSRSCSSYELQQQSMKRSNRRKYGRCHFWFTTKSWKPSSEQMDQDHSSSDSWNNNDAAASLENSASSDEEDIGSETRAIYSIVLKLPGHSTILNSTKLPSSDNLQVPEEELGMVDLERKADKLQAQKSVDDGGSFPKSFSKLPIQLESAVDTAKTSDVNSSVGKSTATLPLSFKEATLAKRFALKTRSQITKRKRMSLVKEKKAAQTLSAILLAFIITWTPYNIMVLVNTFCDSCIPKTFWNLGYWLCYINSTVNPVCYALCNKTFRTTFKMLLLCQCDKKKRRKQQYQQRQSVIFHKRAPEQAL

**Q.** For `C[N+]1([O-])CCN(C2=Nc3cc(Cl)ccc3Nc3ccccc32)CC1` [CNO, clozapine N-oxide], which “excitability of transduced MSNs” value (hM3Dq [1]) is on record?
**A.** augmentation of excitability

**Q.** And the “caudate cells activated (FIG. 12L)” value (hM3Dq [2]; 34 total cells, saline 18.8%)?
**A.** 67.6%

**Q.** And the “caudate cells inactivated (FIG. 12L)” value (hM3Dq [2]; 34 total cells, saline 40.6%)?
**A.** 2.9%

**Q.** And the “caudate cells unchanged (FIG. 12L)” value (hM3Dq [2]; 34 total cells, saline 40.6%)?
**A.** 29.4%

**Q.** What about the “caudate cells activated (FIG. 12C)” value (hM3Dq [2]; monkey CM045, 34 cells) of the same compound?
**A.** 70.6%

**Q.** What about the “caudate cells inactivated (FIG. 12C)” value (hM3Dq [2]; monkey CM045, 34 cells) of the same compound?
**A.** 8.8%

**Q.** What about the “caudate cells unchanged (FIG. 12C)” value (hM3Dq [2]; monkey CM045, 34 cells) of the same compound?
**A.** 20.6%

**Q.** What about the “caudate/putamen cells activated (FIG. 15G)” value (rM3Ds; CNO 36 cells, DCZ 31 cells, saline 17.9%) of the same compound?
**A.** 52.8%

**Q.** What about the “caudate/putamen cells inactivated (FIG. 15G)” value (rM3Ds; saline 33.4%) of the same compound?
**A.** 13.9%

**Q.** And the “caudate/putamen cells unchanged (FIG. 15G)” value (rM3Ds; saline 48.7%)?
**A.** 33.3%
